Source: patent US20140341812A1, “BETA-AMYLOID PET IMAGING AGENTS” (The United States of America, as represented by the …, priority 2006, published 2014)

How the values were obtained:
[1] = target: T1, beta-amyloid plaques in AD brain tissue (Homo sapiens, UniProt P05067); experiment: In vitro binding assay: competitive displacement of [3H]6-OH-BTA-1 from isolated human AD amyloid plaques; conditions: for Ki: [3H]6-OH-BTA-1 as reference radioligand, isolated human AD amyloid plaques; for binding affinity (in words): discussion of the Table 4 Ki values
T1 construct: gauged from the concentration of Aβ1-40 and Aβ1-42 monomers; from tissue; host or cells: postmortem human AD brain grey matter; plaques isolated by SDS/sucrose centrifugation and collagenase/DNase digestion
T1 sequence (P05067 672-713 limits assumed): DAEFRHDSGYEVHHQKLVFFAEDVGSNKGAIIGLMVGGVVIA
T1 sequence (P05067 672-711 limits assumed): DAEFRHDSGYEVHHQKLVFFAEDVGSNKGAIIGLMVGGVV
Protocol: Isolation of human AD amyloid. Postmortem brain […] were obtained from a confirmed AD patient. Pre- and postmortem consent was obtained from next of kin, and brains were removed at autopsy, sectioned and frozen at −70° C. Bags of brain tissue were removed from the freezer to a −20° C. freezer one day before, and then placed on ice 3 h before the experiment. While working on ice, the brain tissue was cut into small sections, and meningies from outer layer of cortex and from fissures between the lobes of the gray matter was removed. After removing the white matter, the grey matter were chopped into small pieces and placed into plastic bags. The tissue was stored in −70° C. freezer for further use.
In a typical isolation, 60 g of brain tissue were used. Initially, an equal volume of 1% SDS was added to homogenize. More 1% SDS was added later until 200 mL. The mixture was vortexed, distributed evenly among 10 Beckman ultracentrifuge tubes, and centrifuged by a Coulter type 55.2 Ti ultracentrifuge rotor using RPM: 40,000; G force; 180,000; temp: 4° C.; time: 30 min. The collected bottom pellets were further homogenized and centrifuged twice more as described above using 50 mL and 20 mL of 1% SDS each, and finally in 20 mL 1.2 M sucrose. The supernatant along the top pellet was discarded. The pellets at the bottom were homogenized and centrifuged in 20 mL 1.9 M sucrose. The top pellets were collected using a cell scrapper, and the bottom pellets were discarded. The collected top pellets were homogenized and centrifuged using 20 mL deionized water. The bottom pellets were further homogenized and centrifuged using 1.3 M sucrose solution into one centrifuge tube. The bottom pellets were homogenized and centrifuged using 20 mL deionized water. The collected pellets were homogenized in 30 mL of 50 mM Tris-HCl, pH 8.0, 2 mM CaCl2. Collagenase CLS3 (120 mg) and DNAase I (10-15 mg) were added. The mixture was vortexed and incubated for 24-56 hrs at 37° C. in a water bath with shaking. After incubation, the suspension was filtered through 41 μm Milllpore filter paper. The collected filtrate was centrifuged and the bottom pellets were homogenized and centrifuged one more time using the Tris-HCl solution. The supernatant was discarded, and the pellets were homogenized and centrifuged using 10 mL 1.9 M sucrose. The top pellet and the 1.9M sucrose layer were transferred to a new tube (this is to remove heavy particles such as metals and salts). Deionized water (40 mL) was added. After homogenization and centrifugation, the collected pellets were put into 500 μL of deionized water to form a homogeneous suspension. It was stored in a refrigerator or freezer for further use.
The amyloid suspension prepared above was diluted by a factor of 40,000 to 50,000 in PBS, and 800 μL suspension was used in each tube. […] Cold 6-OH-BTA-1 or other displacer was dissolved in ethanol to result in a stock solution of 1×10^−3 M, which was further diluted using PBS or ethanol to result in solutions with concentrations ranging from 1×10^−5 to 10^−10 M, and 100 μL was used in each tube. After assembly, the tubes were vortexed, and incubated for 3 hrs at room temperature. After separation using a cell harvester, the filter paper (GF/B filter paper pretreated with 0.5% polyimine solution) was washed with 10% ethanol in PBS (3×3 mL). The filters were placed into 20 mL glass vials and 10 mL scintillation fluid each was added. After overnight incubation, the samples were counted. The data were analyzed using GraphPad Prism 4 or KaleidaGraph 3.6.
Isolated plaques were used in developing an in vitro binding assay. Tritiated-6-OH-BTA-1 was selected as the reference radioligand based on its use in human PET imaging and high affinity.^28 Displacement curves were created using non-radioactive 6-OH-BTA-1 and other novel ligands.

[2] = after intravenous injection into rodent or monkey; reported in Cai et al., J. Med. Chem. 2004; cited from earlier work
amyloid = amyloid (Homo sapiens, UniProt P05067); conditions: PET, patients with AD vs healthy people; cited from earlier work
Chain of amyloid (P05067 672-713 limits assumed): as the sequence (P05067 672-713 limits assumed) above
Chain of amyloid (P05067 672-711 limits assumed): as the sequence (P05067 672-711 limits assumed) above

Ki ([1]; Table 4) [nM]	SMILES	further results
31 ± 5	CN(CCF)c1ccc(-c2cn3cc(I)ccc3n2)cc1 [Ligand L2, N-(2-fluoroethyl)-4-(6-iodo-H-imidazo[1,2-A]pyridin-2-yl)-N-methylbenzeneamine, reference compound]	–
41 ± 5	CN(CCCF)c1ccc(-c2cn3cc(I)ccc3n2)cc1 [Ligand L3, reference compound]	–
24.2 ± 5.6	CN(C)c1ccc(-c2cn3cc(Cl)ccc3n2)cc1 [Ligand L5]	melting point: 234 to 236 °C
13 ± 1.6	CN(C)c1ccc(-c2cn3cc(F)ccc3n2)cc1 [Ligand L6, 4-(6-fluoro-H-imidazo[1,2-a]pyridin-2-yl)-N,N-dimethylbenzenamine]	–
7.6 ± 0.7	CN(C)c1ccc(-c2cn3cc([N+](=O)[O-])ccc3n2)cc1 [Ligand L7, N,N-dimethyl-4-(6-nitro-H-imidazo[1,2-a]pyridin-2-yl)benzenamine]	–
8.2 ± 1	CN(C)c1ccc(-c2cn3cc(C#N)ccc3n2)cc1 [Ligand L8, 2-(4-(dimethylamino)phenyl)-H-imidazo[1,2-a]pyridine-6-carbonitrile]	melting point: 269 to 271 °C
38.5 ± 5	COc1ccc2nc(-c3ccc(N(C)C)cc3)cn2c1 [Ligand L9, 4-(6-methoxy-H-imidazo[1,2-a]pyridin-2-yl)-N,N-dlmethylbenzenamine]	–
177 ± 31	CN(C)c1ccc(-c2cn3cc(O)ccc3n2)cc1 [Ligand L12, 2-(4-(dimethylamino)phenyl)-H-imidazo[1,2-a]pyridin-6-ol]	binding affinity (in words) [1]: abolishes all binding affinity
183 ± 61	CN(C)c1ccc(-c2cc3c(I)cc(Br)cn3c2)cc1 [Ligand L13, 4-(6-bromo-8-iodoindolizin-2-yl)-N,N-dimethylbenzenamine]	–
> 180	CN(C)c1ccc(-c2cc3c(C#N)cc(Br)cn3c2)cc1 [Ligand L14, 6-bromo-2-(4-(dimethylamino)phenyl)indolizine-8-carbonitrile]	binding affinity (in words) [1]: completely removes the binding affinity
–	CC(=O)N(C)c1ccc(-c2cc3ccc(Br)cn3c2)cc1C [Ligand L16, N-(4-(6-bromoindolizin-2-yl)-2-methylphenyl)-N-methylacetamide]	melting point: 197 to 198 °C
7.4 ± 0.6	CNc1ccc(-c2cn3cc(Br)ccc3n2)cc1Br [Ligand L18, 2-bromo-4-(6-bromo-H-imidazo[1,2-a]pyridin-2-yl)-N-methylbenzenamine]	–
658 ± 47	Cc1cc(-c2cn3cc(Br)ccc3n2)ccc1N [Ligand L20, 4-(6-bromo-H-imidazo[1,2-a]pyridin-2-yl)-2-methylbenzenamine]	–
–	CN(C)c1ccc(-c2cn3cc(Cl)ncc3n2)cc1 [Ligand L21, 4-(6-chloroimidazo[1,2-a]pyrazin-2-yl)-N,N-dimethylbenzenamine]	Ki ([1]; Table 5): 88 ± 22 nM
–	CN(C)c1ccc(-c2cn3cc(Cl)cnc3n2)cc1 [Ligand L22, 4-(6-chloroimidazo[1,2-a]pyrimidin-2-yl)-N,N-dimethylbenzenamine]	Ki ([1]; Table 5): 147 ± 20 nM
–	CN(C)c1ccc(-c2nc3ccc(SCCO)cc3s2)cc1 [Ligand P1]	Ki ([1]; Table 5): 5.7 ± 0.7 nM
1840 ± 497	CNc1ccc(-c2cn3cc(SCC(N)=O)ccc3n2)cc1 [Ligand T1, 2-(2-(4(methylamino)pheny)-H-imidazo[1,2-a]pyridin-6-ylthio)acetamide]	–
391 ± 76	CN(C)c1ccc(-c2cn3cc(SCC(N)=O)ccc3n2)cc1 [Ligand T2, 2-(2-(4-(dimethylamino)phenyl)-H-imidazo[1,2-a]pyridin-6-ylthio)acetamide]	–
645 ± 75	CNc1ccc(-c2cn3cc(SCCO)ccc3n2)cc1 [Ligand T3, 2-(2-(4-(methylamino)phenyl)-H-imidazo[1,2-a]pyridin-6-ylthio)ethanol]	–
88 ± 6	CN(C)c1ccc(-c2cn3cc(SCCO)ccc3n2)cc1 [Ligand T4, 2-(2-(4-(dimethylamino)phenyl)-H-imidazo[1,2-a]pyridin-6-ylthio)ethanol]	–
8.3 ± 1.8	COc1ccc(CSc2ccc3nc(-c4ccc(N(C)C)cc4)cn3c2)cc1 [Ligand T5, 4-(6-(4-methoxybenzylthio)-H-imidazo[1,2-a]pyridin-2-yl)-N,N-dimethylbenzenamine]	–
7.9 ± 0.6	CSc1ccc2nc(-c3ccc(N(C)C)cc3)cn2c1 [Ligand T6, N,N-dimethyl-4-(6-(methylthio)-H-imidazo[1,2-a]pyridin-2-yl)benzenamine]	–
8.3 ± 0.5	CCSc1ccc2nc(-c3ccc(N(C)C)cc3)cn2c1 [Ligand T7, 4-(6-(ethylthio)-H-imidazo[1,2-a]pyridin-2-yl)-N,N-dimethylbenzenamine]	melting point: 168 to 171 °C
–	CNc1ccc(-c2nc3ccc(O)cc3s2)cc1 [PIB, 6-hydroxy-2-(4′-methylaminophenyl)benzothiazole, reference compound]	displacement of reference radioligand ([1]; displacement of [3H]6-OH-BTA-1 from isolated amyloid plaques): > 95%
–	CN(CCF)c1ccc(-c2cn3cc(I)ccc3n2)cc1 [[^18F]FEM-IMPY, N-(2-fluoroethyl)-4-(6-iodo-H-imidazo[1,2-A]pyridin-2-yl)-N-methylbenzeneamine]	SUV (standardized uptake value) in brain [2]: about 160 % I.D.kg/g
–	CN(CCC[18F])c1ccc(-c2cn3cc(I)ccc3n2)cc1 [[^18F]FPM-IMPY]	SUV (standardized uptake value) in brain [2]: about 160 % I.D.kg/g
–	CNc1ccc(-c2nc3ccc(O)cc3s2)cc1 [carbon-11-labelled-PIB, 6-hydroxy-2-(4′-methylaminophenyl)benzothiazole]	binding in the brains of patients with AD compared with healthy people (amyloid): more binding in the brains of patients with AD than in those of healthy people
–	CC(=C(C#N)C#N)c1ccc2cc(N(C)CC[18F])ccc2c1 [fluorine-18-labelled-FDDNP, 2-(1-{6-[(2-[^18F]fluoroethyl)(methyl)amino]-2-naphthyl}ethylidene)malononitrile]	binding in the brains of patients with AD compared with healthy people (amyloid): more binding in the brains of patients with AD than in those of healthy people

SMILES	Ki ([1]; Table 4) [nM]	further results
CN(C)c1ccc(-c2cn3cc(Br)ccc3n2)cc1 [Ligand L4]	5.9 ± 0.4	–
